Source: patent publication US6737383B1, “Herbicidal oxadiazolidines” (priority 1999, dated 2004)

Assays:
Conditions in all cases: Preemergence
purple nutsedge = experiment: Test B pre/postemergence purple nutsedge; format: in vivo, Cyperus rotundus
In short: (§1)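 Herbicidal effect was estimated by eye on a ten-point control scale after plants spent twelve to sixteen days in a greenhouse following soil or foliar treatment. Foliar sprays targeted plants at one to four leaves; all doses were formulated in a non-phytotoxic solvent with surfactant.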

pigweed = experiment: Test B pre/postemergence pigweed; format: in vivo, Amaranthus retroflexus
In short: as §1

corn = experiment: Test B pre/postemergence corn; format: in vivo, Zea mays
In short: as §1

blackgrass = experiment: Test B pre/postemergence blackgrass; format: in vivo, Alopecurus myosuroides
In short: as §1

sugar beet = experiment: Test B pre/postemergence sugar beet; format: in vivo, Beta vulgaris
In short: as §1

bedstraw = experiment: Test B pre/postemergence bedstraw; format: in vivo, Galium aparine
In short: as §1

morningglory = experiment: Test B pre/postemergence morningglory; format: in vivo, Ipomoea hederacea
In short: as §1

soybean = experiment: Test B pre/postemergence soybean; format: in vivo, Glycine max
In short: as §1

crabgrass = experiment: Test B pre/postemergence crabgrass; format: in vivo, Digitaria sanguinalis
In short: as §1

velvetleaf = experiment: Test B pre/postemergence velvetleaf; format: in vivo, Abutilon theophrasti
In short: as §1

giant foxtail = experiment: Test B pre/postemergence giant foxtail; format: in vivo, Setaria faberii
In short: as §1

cocklebur = experiment: Test B pre/postemergence cocklebur; format: in vivo, Xanthium strumarium
In short: as §1

surinam grass = experiment: Test B pre/postemergence surinam grass; format: in vivo, Brachiaria decumbens
In short: as §1

wheat = experiment: Test B pre/postemergence wheat; format: in vivo, Triticum aestivum
In short: as §1

rape = experiment: Test B pre/postemergence rape; format: in vivo, Brassica napus
In short: as §1

wild oat = experiment: Test B pre/postemergence wild oat; format: in vivo, Avena fatua
In short: as §1

[1] = Rate 62 g/ha, scale of 0 to 10 where 0 is no effect and 10 is complete control
[2] = Rate 125 g/ha, scale of 0 to 10 where 0 is no effect and 10 is complete control
[3] = Rate 500 g/ha, scale 0 to 10 (0 no effect, 10 complete control)
[4] = Rate 250 g/ha, scale 0 (no effect) to 10 (complete control)

SMILES: COC(CCl)n1c(=O)on(C(=O)N(c2ccc(Cl)cc2)C(C)C)c1=O (stereo not drawn) [Compound 725]
- Nutsedge plant response rating (purple nutsedge; [1]): 0
- Plant response rating, Nutsedge (purple nutsedge; [2]): 0
- Nutsedge plant response rating (purple nutsedge; [3]): 0
- Redroot pigweed plant response rating (pigweed; [1]): 0
- Plant response rating, Redroot pigweed (pigweed; [2]): 0
- Redroot pigweed plant response rating (pigweed; [4]): 0
- Redroot pigweed plant response rating (pigweed; [3]): 3
- Corn plant response rating (corn; [1]): 0
- Plant response rating, Corn (corn; [2]): 0
- Corn plant response rating (corn; [4]): 0
- Corn plant response rating (corn; [3]): 0
- Blackgrass plant response rating (blackgrass; [1]): 2
- Plant response rating, Blackgrass (blackgrass; [2]): 4
- Blackgrass plant response rating (blackgrass; [4]): 7
- Blackgrass plant response rating (blackgrass; [3]): 7
- Sugarbeets plant response rating (sugar beet; [1]): 0
- Plant response rating, Sugarbeets (sugar beet; [2]): 0
- Sugarbeets plant response rating (sugar beet; [4]): 0
- Sugarbeets plant response rating (sugar beet; [3]): 2
- Bedstraw plant response rating (bedstraw; [1]): 0
- Plant response rating, Bedstraw (bedstraw; [2]): 0
- Bedstraw plant response rating (bedstraw; [4]): 0
- Bedstraw plant response rating (bedstraw; [3]): 0
- Morningglory plant response rating (morningglory; [1]): 1
- Plant response rating, Morningglory (morningglory; [2]): 1
- Morningglory plant response rating (morningglory; [4]): 1
- Morningglory plant response rating (morningglory; [3]): 3
- Soybean plant response rating (soybean; [1]): 0
- Plant response rating, Soybean (soybean; [2]): 0
- Soybean plant response rating (soybean; [4]): 0
- Soybean plant response rating (soybean; [3]): 0
- Crabgrass plant response rating (crabgrass; [1]): 6
- Plant response rating, Crabgrass (crabgrass; [2]): 6
- Crabgrass plant response rating (crabgrass; [4]): 8
- Crabgrass plant response rating (crabgrass; [3]): 8
- Velvetleaf plant response rating (velvetleaf; [1]): 0
- Plant response rating, Velvetleaf (velvetleaf; [2]): 0
- Velvetleaf plant response rating (velvetleaf; [4]): 0
- Velvetleaf plant response rating (velvetleaf; [3]): 0
- Giant foxtail plant response rating (giant foxtail; [1]): 7
- Plant response rating, Giant foxtail (giant foxtail; [2]): 8
- Giant foxtail plant response rating (giant foxtail; [4]): 10
- Giant foxtail plant response rating (giant foxtail; [3]): 10
- Cocklebur plant response rating (cocklebur; [1]): 0
- Plant response rating, Cocklebur (cocklebur; [2]): 0
- Cocklebur plant response rating (cocklebur; [4]): 0
- Cocklebur plant response rating (cocklebur; [3]): 0
- B. signalgrass plant response rating (surinam grass; [1]): 0
- Plant response rating, B. signalgrass (surinam grass; [2]): 3
- B. signalgrass plant response rating (surinam grass; [4]): 4
- B. signalgrass plant response rating (surinam grass; [3]): 4
- Wheat plant response rating (wheat; [1]): 0
- Plant response rating, Wheat (wheat; [2]): 0
- Wheat plant response rating (wheat; [4]): 0
- Wheat plant response rating (wheat; [3]): 0
- Rape plant response rating (rape; [1]): 0
- Plant response rating, Rape (rape; [2]): 0
- Rape plant response rating (rape; [4]): 0
- Rape plant response rating (rape; [3]): 0
- Wild oats plant response rating (wild oat; [1]): 0
- Plant response rating, Wild oats (wild oat; [2]): 2
- Wild oats plant response rating (wild oat; [4]): 4
- Wild oats plant response rating (wild oat; [3]): 6
